EP2571872B1, “COMPOUNDS” (Treherne, Johnathan Mark, priority 2010, dated 2011)

How the values were obtained:
SH SY5Y cells = test: Cell viability assay for amyloid toxicity using MTT reduction; assay type: cell-based; settings: protection of SH SY5Y cells from a toxic insult of 10µM Aβ(1-42), MTT reduction as measure of cell viability, 24 h incubation
Experimental: Aβ(1-42) was prepared for amyloid aggregation and toxicity assays by dissolving Aβ(1-42) HCl salt in hexafluoroisopropanol (HFIP), with brief sonication and vortexing. This solution of the Aβ(1-42) peptide in HFIP was stored at 4°C @ 2mM. When required, an aliquot of this stock solution was freeze-dried and dissolved in DMSO to 200 times the required final assay concentration (e.g. 2mM for a final assay concentration of 10 µM).
A 20mM stock solution of each test compound was prepared in DMSO, and aliquots of these solutions were used to prepare further stock solutions of each test compound in DMSO, ranging in concentration from 3µM up to 10mM. These stock solutions were prepared for use as and when required and stored at -20°C (maximum of 3 freeze-thaw cycles). The 20mM parent stock solutions were stored frozen at -20 °C.
The activity of compounds in protecting SH SY5Y cells from a toxic insult of 10µM Aβ(1-42) was assessed by using inhibition of MTT reduction as a measure of cell viability. An aliquot (3µl) of test compound [various concentrations] in DMSO is added to 294 µl of Opti-Mem (containing 2% FBS, 1% Pen/Strep, 1% L-Gln) {daughter plate}. The well is mixed thoroughly. Then an aliquot (3 µl) of Aβ(1-42) [2mM] is added to the daughter plate wells and again mixed thoroughly. 50 µl is then aspirated and dispensed into wells containing 50 µl media + SH SY5Ycells (cells are also plated in Opti-Mem, at ∼ 30,000 cells/well/50 µl). […]
Cell plates are incubated for 24 h and then the MTT assay (Shearman, 1999), is performed. […] The plate was shaken and the absorbance was recorded at both 570 nm and 650 nm. ΔA values were calculated by subtracting absorbance at 650 nm from absorbance at 570 nm, to reduce non-specific background absorbance. ΔA values from equivalent experiments were averaged and % cell viability was determined as follows: % cell viability = ([ΔA(sample)-ΔA(deal cell control)] x 100%)/([ΔA(live cell control)-ΔA(dead cell control)]) [formula] • Live cell controls: 1% DMSO in Opti-Mem • Dead cell controls: 0.1% Triton X-100 added to cells […]

[1] = tested on: rat hippocampal brain slices; test: Long-term potentiation (LTP) in hippocampal brain slices, Aβ(1-42)-induced depression of LTP; settings: compound at 3µM, Schaffer collateral stimulation
Experimental: Long-term potentiation (LTP) is a natural, prolonged electrophysiological response associated with the neurological processes of learning and short-term memory, which are affected in Alzheimer's disease. […] LTP was measured using stimulation of Schaffer collaterals in rat hippocampal brain slices, as described below.
20µL of 5mM Example 1 in DMSO was added to the stock Aβ(1-42) (1mL) and agitated at 37°C for 24hr. On the experimental day the mixture is diluted to 33mL in aCSF (32mL) immediately prior to use. The final concentration of Example 1 was 3µM. The final concentration of Aβ(1-42) was 1µM and the final concentration of DMSO was 0.06% […]
Schaffer collaterals were stimulated (3-22V, 0.1ms pulse width, 0.03Hz) with a concentric bipolar electrode and the evoked extracellular field excitatory postsynaptic potentials (fEPSPs) were recorded via an Axoclamp 2A amplifier from the stratum radiatum of the CA1 region of the hippocampus with a glass capillary microelectrode filled with 4M NaCl (resistance 2-4 MΩ). […] A 10 minute stable baseline period (control) was recorded followed by administration of test compound 10 minutes prior to high frequency stimulation (1sec 100Hz train) applied three times at 10 minute intervals with an 80 minute wash of test compound after the final high frequency stimulation protocol. […]

SMILES: Oc1cccc(Nc2ccc(Nc3cccc(O)c3)nn2)c1 [RS-0406, reference compound]
- IC50 (SH SY5Y cells): 35 µM

SMILES: Fc1ccc2c(c1)N(c1ncc(Oc3cccc(N4CCOCC4)c3)cn1)CCO2 [Example 2, 6-Fluoro-4-[5-(3-morpholinophenoxy)pyrimidin-2-yl]-3,4-dihydro-2H-benzo[1,4]oxazine]
- IC50 (SH SY5Y cells; Homo sapiens): 26 µM

SMILES: Fc1cccc2c1OCCN2c1ncc(Oc2cccc(N3CCOCC3)c2)cn1 [Example 1, 8-Fluoro-4-[5-(3-morpholinophenoxy)pyrimidin-2-yl]-3,4-dihydro-2H-benzo[1,4]oxazine]
- IC50 (SH SY5Y cells; Homo sapiens): 23 µM
- toxic effect of 1µM Aβ(1-42) on LTP [1]: effectively blocked
